Test results taken from patent US12509460B2 (Skyhawk Therapeutics, Inc., priority 2019, dated 2025).
pEC50: −log10 of the molar value. Like-named read-outs stand apart in the source and are kept apart here.

Experiments:
[1] = tested on: MDR1; assay: Blood-brain-barrier (BBB) penetration potential via MDCK-MDR1 permeability assay; conditions: dog, MDCK-MDR1, pH 7.4, MDCK-MDR1: Efflux
[2] = tested on: MDR1 (P-gp); assay: as above; conditions: dog; for Papp A→B at 120 min, 5 μM: MDCK-MDR1, pH 7.4, MDCK-MDR1: Papp A-B; for Papp B→A at 120 min, 5 μM: MDCK-MDR1, pH 7.4, MDCK-MDR1: Papp B-A
[3] = tested on: MDR1-MDCK cell monolayers; assay: as above
[4] = tested on: SMN protein in spinal muscular atrophy (SMA) patient fibroblasts (GM03813, Coriell); assay: SMN protein assay, Mesoscale Discovery (MSD); assay type: cell-based, human; conditions: read-out: SMN2 protein EC50
Procedure, shortened: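 Absolute SMN levels were quantified by MSD against an SMN protein standard curve (1 μg/ml to 19.5 pg/ml) run on each plate. Samples were lysates of GM03813 patient fibroblasts (7000 cells/well) treated 48 hours with compound doses from 2.5 μM down to 0.6 nM.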

[5] = tested on: SMN FL and SMN Δ7 in spinal muscular atrophy (SMA) patient fibroblasts (GM03813, Coriell); assay: Quantitative splicing assay (SMN), qPCR; assay type: cell-based, human; conditions: Homo sapiens, Fibroblast, 24 h, read-out: SMN2 Splicing FL EC50
Procedure: Spinal muscular atrophy (SMA) patient fibroblasts (GM03813, Coriell) are plated in 96-well plates at 50,000 cells/well. […] Treated cells are lysed and cDNA synthesized using the Fast Advanced Cells-to-Ct kit (Thermofisher A35378) according to the manufacturer's instructions. 2 μL of each cDNA are used in qPCR reactions. […] Reactions are run in a Quant Studio 6 qPCR instrument with default settings.

[6] = tested on: mHTT protein in GM04724 (CAG 70/20) Huntington's disease patient lymphoblast cells; assay: mHTT protein assay, 2B7-MW1 assay via Mesoscale Discovery (MSD); assay type: cell-based, human
Procedure, shortened: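 Signal from the 2B7-MW1 antibody pair on MSD, rising with polyQ length and smaller HTT fragments, measured mHTT after 48 h compound exposure (0.6 nM–10 μM) in GM04724 cells. A parallel replicate plate gave CellTiter Glo viability.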

[7] = SMA patient fibroblasts GM03813, 48 hours, MSD
[8] = SMA patient fibroblasts GM03813, 24 h, qPCR
[9] = GM04724 Huntington's disease patient lymphoblasts
[10] = SMA patient fibroblasts (GM03813), 48 hours
[11] = SMA patient fibroblasts (GM03813)
[12] = GM04724 (CAG 70/20) Huntington's disease patient lymphoblasts

| SMILES | efflux ratio at 120 min, 5 μM ([1]; efflux ratio) | Papp A→B at 120 min, 5 μM ([2]; A-B direction) [×10⁻⁶ cm/s] | Papp B→A at 120 min, 5 μM ([2]; B-A direction) [×10⁻⁶ cm/s] | MDCK-MDR1: % Recov A-B ([3]; A-B direction) [%] | MDCK-MDR1: % Recov B-A ([3]; B-A direction) [%] | pEC50 [4, 7] | pEC50 [5, 8] | pEC50 [6, 9] | efflux ratio at 120 min, 5 μM [1] | Papp A→B at 120 min, 5 μM ([2]; A-B) [×10⁻⁶ cm/s] | Papp B→A at 120 min, 5 μM ([2]; B-A) [×10⁻⁶ cm/s] | MDCK-MDR1: % Recov A-B ([3]; A-B) [%] | MDCK-MDR1: % Recov B-A ([3]; B-A) [%] | pEC50 [4, 10] | pEC50 [5, 11] | pEC50 [6, 12] |
| --- | --- | --- | --- | --- | --- | --- | --- | --- | --- | --- | --- | --- | --- | --- | --- | --- |
| CN(c1ccc(-c2ccc(-c3cnn(C)c3)cc2O)nn1)[C@H]1C[C@@H]2CCC[C@@H](N2)[C@H]1F [Compound 15B, 2-(6-(((1R,2R,3S,5S)-2-fluoro-9-azabicyclo[3.3.1]nonan-3-yl)(methyl)amino)pyridazin-3-yl)-5-(1-methyl-1H-pyrazol-4-yl)phenol] | 12 | 3.21 | 39.3 | 62 | 84 | 7.82 to 11.00 | 7.82 to 11.00 | 7.82 to 11.00 | – | – | – | – | – | – | – | – |
| CN(c1ccc(-c2cc3cccnc3cc2O)nn1)[C@@H]1C[C@H]2CC(F)(F)[C@@H](C1)N2 [Compound 45A, 6-(6-(((1S,3R,5R)-6,6-difluoro-8-azabicyclo[3.2.1]octan-3-yl)(methyl)amino)pyridazin-3-yl)quinolin-7-ol] | 6 | 9.45 | 54.6 | 104 | 115 | 7.30 to 7.80 | 6.30 to 7.00 | 7.00 to 7.29 | – | – | – | – | – | – | – | – |
| CN(c1ccc(-c2cc3c(=O)n(C)cnc3cc2O)nn1)[C@H]1C[C@@H]2CC[C@H]([C@H]1F)N2C [Compound 102B, 6-(6-(((1R,2R,3S,5S)-2-fluoro-8-methyl-8-azabicyclo[3.2.1]octan-3-yl)(methyl)amino)pyridazin-3-yl)-7-hydroxy-3-methylquinazolin-4(3H)-one] | – | – | – | – | – | – | – | – | 30 | 1.63 | 48.1 | 91 | 91 | 7.30 to 7.80 | 6.30 to 7.00 | 7.00 to 7.29 |
| COc1cn(-c2ccc(-c3ccc(N(C)[C@@H]4C[C@H]5CC(F)(F)[C@@H](C4)N5)nn3)c(O)c2)cn1 [Compound 19A, 2-(6-(((1S,3R,5R)-6,6-difluoro-8-azabicyclo[3.2.1]octan-3-yl)(methyl)amino)pyridazin-3-yl)-5-(4-methoxy-1H-imidazol-1-yl)phenol] | 6 | 10.1 | 56.6 | 81 | 94 | 7.82 to 11.00 | 7.00 to 7.29 | 7.00 to 7.29 | – | – | – | – | – | – | – | – |
| CNC(=O)c1ccc(-c2ccc(N(C)[C@H]3C[C@@H]4CC[C@@H](N4)[C@H]3F)nn2)c(O)c1 (single isomer, unassigned) [Compound 77B] | 144 | 0.28 | 40.3 | 102 | 106 | 6.30 to 7.00 | 7.00 to 7.29 | 6.30 to 7.00 | – | – | – | – | – | – | – | – |
| Cc1nc2cc(-c3ccc(N(C)[C@H]4C[C@@H]5CC[C@@H](N5)[C@H]4F)nn3)c(O)cc2c(=O)n1CC(F)(F)F [Compound 113B, 7-(6-(((1R,2R,3S,5S)-2-fluoro-8-azabicyclo[3.2.1]octan-3-yl)(methyl)amino)pyridazin-3-yl)-6-hydroxy-2-methyl-3-(2,2,2-trifluoroethyl)quinazolin-4(3H)-one] | – | – | – | – | – | – | – | – | 232 | 0.3 | 68.4 | 101 | 123 | 7.82 to 11.00 | 7.30 to 7.80 | 6.30 to 7.00 |
| CN(C)C(=O)c1cc2cc(O)c(-c3ccc(N(C)[C@H]4C[C@@H]5CC[C@@H](N5)[C@H]4F)nn3)cc2o1 [Compound 9B, 6-(6-(((1R,2R,3S,5S)-2-fluoro-8-azabicyclo[3.2.1]octan-3-yl)(methyl)amino)pyridazin-3-yl)-5-hydroxy-N,N-dimethylbenzofuran-2-carboxamide] | 78 | 0.62 | 48.2 | 88 | 100 | 7.30 to 7.80 | 6.30 to 7.00 | 6.30 to 7.00 | – | – | – | – | – | – | – | – |
| CN(c1ccc(-c2ccc(C#N)cc2O)nn1)[C@H]1C[C@@H]2CC[C@@H](N2)[C@H]1F [Compound 38B, 4-(6-(((1R,2R,3S,5S)-2-fluoro-8-azabicyclo[3.2.1]octan-3-yl)(methyl)amino)pyridazin-3-yl)-3-hydroxybenzonitrile] | 2 | 18.9 | 47.1 | 95 | 102 | 7.30 to 7.80 | 7.30 to 7.80 | 7.30 to 7.80 | – | – | – | – | – | – | – | – |
| CN(c1ccc(-c2cc3nccnc3cc2O)nn1)[C@@H]1C[C@H]2CC[C@H](N2)[C@@H]1F [Compound 88A, 7-(6-(((1S,2S,3R,5R)-2-fluoro-8-azabicyclo[3.2.1]octan-3-yl)(methyl)amino)pyridazin-3-yl)quinoxalin-6-ol] | 9 | 4.84 | 45.7 | 85 | 99 | 7.30 to 7.80 | 6.30 to 7.00 | 7.00 to 7.29 | – | – | – | – | – | – | – | – |
| CN(c1ccc(-c2cc3nnccc3cc2O)nn1)[C@@H]1C[C@H]2CC[C@H](N2)[C@@H]1F [Compound 89A, 7-(6-(((1S,2S,3R,5R)-2-fluoro-8-azabicyclo[3.2.1]octan-3-yl)(methyl)amino)pyridazin-3-yl)cinnolin-6-ol] | 51 | 1.31 | 67.3 | 92 | 106 | 7.30 to 7.80 | 6.30 to 7.00 | 6.30 to 7.00 | – | – | – | – | – | – | – | – |
| CN(c1ccc(-c2cc3ncn(CC(F)(F)F)c(=O)c3cc2O)nn1)[C@@H]1C[C@H]2CC[C@H](N2)[C@@H]1F [Compound 81A, 7-(6-(((1S,2S,3R,5R)-2-fluoro-8-azabicyclo[3.2.1]octan-3-yl)(methyl)amino)pyridazin-3-yl)-6-hydroxy-3-(2,2,2-trifluoroethyl)quinazolin-4(3H)-one] | 139 | 0.37 | 51 | 100 | 94 | 7.30 to 7.80 | 7.00 to 7.29 | 6.30 to 7.00 | – | – | – | – | – | – | – | – |
| CN(C)C(=O)c1cc2cc(O)c(-c3ccc(N(C)[C@@H]4C[C@H]5CC[C@H](N5)[C@@H]4F)nn3)cc2o1 [Compound 9A, 6-(6-(((1S,2S,3R,5R)-2-fluoro-8-azabicyclo[3.2.1]octan-3-yl)(methyl)amino)pyridazin-3-yl)-5-hydroxy-N,N-dimethylbenzofuran-2-carboxamide] | 80 | 0.76 | 61.1 | 108 | 111 | 7.82 to 11.00 | 7.30 to 7.80 | 7.00 to 7.29 | – | – | – | – | – | – | – | – |
| CN(c1ccc(-c2ccc(-n3cnc(C#N)c3)cc2O)nn1)[C@@H]1C[C@H]2CCC[C@H](N2)[C@@H]1F [Compound 63A, 1-(4-(6-(((1S,2S,3R,5R)-2-fluoro-9-azabicyclo[3.3.1]nonan-3-yl)(methyl)amino)pyridazin-3-yl)-3-hydroxyphenyl)-1H-imidazole-4-carbonitrile] | 31 | 1.5 | 46 | 76 | 91 | 7.82 to 11.00 | 7.30 to 7.80 | 7.00 to 7.29 | – | – | – | – | – | – | – | – |
| Cc1cc(=O)c2cc(-c3ccc(N(C)[C@H]4C[C@@H]5CC[C@H]([C@H]4F)N5C)nn3)c(O)cc2o1 [Compound 100B, 6-(6-(((1R,2R,3S,5S)-2-fluoro-8-methyl-8-azabicyclo[3.2.1]octan-3-yl)(methyl)amino)pyridazin-3-yl)-7-hydroxy-2-methyl-4H-chromen-4-one] | – | – | – | – | – | – | – | – | 4 | 9.57 | 38.7 | 79 | 80 | 7.30 to 7.80 | 7.30 to 7.80 | 7.00 to 7.29 |
